# Experimental data published in PMC9413219 (Journal of Agricultural and Food Chemistry, 2022).
# Test system: rumen inoculum from fistulated cows
# Assay: In vitro batch culture incubation of a Senecio PA mixture with rumen inoculum
# Type: in vitro ADME
# Conditions: incubation with rumen inoculum up to 20 h
row,SMILES,degradation rate in rumen incubation (half-life ranking)
1,C/C=C1/C[C@@H](C)[C@@](C)(O)C(=O)OCC2=CCN3CC[C@@H](OC1=O)[C@@H]23 [senecionine],fastest degradation
2,C/C=C1/C[C@@]2(CO)O[C@@]2(C)C(=O)OCC2=CCN3CC[C@@H](OC1=O)[C@@H]23 [erucifoline],ranged in the middle
3,C/C=C1/C[C@@H](C)[C@@](C)(O)C(=O)OC/C2=C/CN(C)CC[C@@H](OC1=O)C2=O [senkirkine],slower degradation rates
4,C=C1C/C(=C/C)C(=O)O[C@@H]2CCN3CC=C(COC(=O)[C@]1(C)O)[C@H]23 [seneciphylline],fastest degradation
